Experimental findings from US20050053560A1, “Use of a composition containing extracts of Vitis vinifera and lycopersicum for protecting the skin” (Pharmaton S.A, priority 2003, published 2005) are described below.

This experiment has as its system normal human skin fibroblasts of the cell line NHDF. As to the kind of experiment: Fluoroscan process: antioxidant capacity of human skin fibroblasts. In kind it is cell-based. The following applies: NHDF cells, reference substance at 25 μM. The text has this: For the present cytotoxicity tests and the Fluoroscan process normal human skin fibroblasts of the cell line NHDF were used as the test system, depending on their availability.
The biologically active ingredients (standardised tomato extract, β-Carotene suspension, α-Tocopheryl acetate, standardized grape seed extract, ascorbic acid, selenium yeast) of Seresis® were first investigated in the above-mentioned amounts for possible cytotoxic effects and for their effect on the antioxidant capacity of human skin fibroblasts (NHDF). Apart from the pure mixture of active ingredients the entire contents of an active substance capsule were also used. In addition, a number of additives (oils, etc.) were also included in the test. Using two different in vitro skin models investigations were also carried out to see to what extent the protective effects of the active substances can be visualised. For this, the models were exposed to two different stressors (UV irradiation, activated immune cells).

Turning to `Cc1c(C)c2c(c(C)c1O)CC[C@@](C)(CCC[C@H](C)CCC[C@H](C)CCCC(C)C)O2` [α-Tocopherol], the “antioxidant potential compared with the carrier control” value came out at 120%.
